From US12280148B2, “Composition for promoting extracellular vesicle production containing peptide derived from noxa protein and method for producing extracellular vesicles by using same” (Exocalibre Therapeutics Co., Ltd., priority 2020, dated 2025) come the findings set out here.

Assay type in all cases: cell-based, human
For experiment [1], the system named is 293-HEK cell line. Put plainly: Extracellular vesicle output quantified by Bradford solution. As for the experimental part: The 293-HEK cell line was cultured in a 6-well plate at a rate of 2×10^5 cells/mL, and the next day, the cell line was treated with the solution of Example 1 and a peptide of any one of SEQ ID NOs: 1 to 21. […], the solution was removed, followed by centrifugation at an RCF of 12000, and the extracellular vesicles were quantified using the supernatant by Bradford solution.

The test system of experiment [2] is HeLa cell line. The experiment is described as follows: Extracellular vesicle production, mEmerald-CD9 / mCherry-CD81 transfected cells, confocal imaging every 2 seconds. The settings on record: solution of Example 1, 20 μM. Here is the method:
The HeLa cell line was cultured in a 12-well plate overnight, and in order to identify the CD9 protein, an extracellular vesicle indicator, the HeLa cell line was treated with a plasmid into which Effectene and mEmerald-CD9 were cloned, and after 4 hours, the culture was replaced.
The next day, the culture was removed from the HeLa cell line, and the HeLa cell line was treated with the solution of Example 1. After each HeLa cell line was treated with the eMTDΔ4 peptide (final concentration: 20 μM), a laser having a wavelength of 488 nm was used to excite mEmerald-CD9.
In order to identify the CD81 protein, an extracellular vesicle indicator, the same procedure as in the method for observing the CD9 protein was performed except that the HeLa cells were treated with a plasmid into which mCherry-CD81 instead of mEmerald-CD9 was cloned and mCherry-CD81 was excited using a laser having a wavelength of 561 nm, and the results are shown in FIG. 5B.

Experiment [3] deals with HeLa cell line. The experiment is described as follows: Loading of doxorubicin in extracellular vesicles, confocal microscope. The settings on record: HeLa expressing EGFP-HSP90; peptide 25 μM; doxorubicin 100 μM; solution of Example 1; after 10 minutes. As for the experimental part:
Doxorubicin, which is a drug passing through cell membranes well, is used to treat cancers, such as breast cancer, bladder cancer, Kaposi's sarcoma, lymphoma, or acute lymphoblastic leukemia. First, the HeLa cell line was cultured in a 12-well plate overnight, then transfected with a plasmid expressing EGFP-HSP90 using effectene, and then the culture was replaced after 4 hours. The next day, the culture was removed from the HeLa cell line to prepare a cell line.
The control group was treated with only doxorubicin without any peptide, and the experiment group was treated with the eMTDΔ4 peptide (final concentration: 25 μM) and doxorubicin (final concentration: 100 μM), which have been dissolved in the solution of Example 1, and then after 10 minutes, the groups were observed by a confocal microscope.

Experiment [4] concerns 293-HEK cell line. Put plainly: Loading of recombinant TRAIL protein in extracellular vesicles, SDS-acrylamide gel. The settings on record: Recombinant TRAIL + (2 μg/ml), Peptide + (25 μM), solution of Example 1. As for the experimental part: After the 293-HEK cell line was cultured to 90% confluency in a 6-well plate, the culture was removed, and the cell line was treated with the eMTDΔ4 peptide (final concentration: 25 μM) and the recombinant TRAIL, which have been dissolved to concentrations of 25 μM and 2 μg/ml in the solution of Example 1, respectively. The supernatant was collected, and PEG (final concentration: 8%) was added, followed by centrifugation at an RCF of 12000 for 10 minutes, thereby settling extracellular vesicles, and the extracellular vesicles were loaded on the SDS-acrylamide gel to check the TRAIL protein.

Experiment [5] concerns HeLa cell line. Put plainly: Extracellular vesicle morphology, EGFP-HSP90 transfected cells, confocal microscope. The settings on record: HeLa transfected with pEGFP-HSP90; solution of Example 1; 20 μM; after 10 minutes. Here is the method: In order to transfect the HSP90 protein, an exosome indicator, into the HeLa cell line, the HeLa cell line was cultured overnight in a 6-well plate, and then treated with a plasmid into which Effectene and pEGFP-HSP90 were cloned, and after 4 hours, the culture was replaced.
The next day, the culture was removed from the HeLa cell line, and the solution of Example 1 was added. A control group was not treated with any peptide, and an experiment group was treated with the eMTDΔ4 peptide of SEQ ID NO: 2 (final concentration: 20 μM). The HSP90 protein was excited using an argon laser of 488 nm. After 10 minutes, the control group and the experiment group were observed using a confocal microscope (Leica TCS SP5 Microsystems), and the results are shown in FIG. 4.

In experiment [6] the test system is HeLa cell line. The experiment is described as follows: Loading of propidium iodide (PI) in extracellular vesicles, confocal microscope. The settings on record: HeLa transfected with HSP90; peptide 25 μM; 5 μg/ml PI; solution of Example 1; after 10 minutes. Here is the method:
Propidium iodide (PI), which is a drug poorly passing through cell membranes, is a fluorescent substance capable of being used to stain cells. First, the HSP90 protein was transfected into the HeLa cell line to prepare a cell line.
The control group was treated with only PI without any peptide, and the experiment group was treated with the eMTDΔ4 peptide (final concentration: 25 μM) and 5 μg/ml PI, which have been in combination dissolved in the solution of Example 1, and then after 10 minutes, the groups were observed by a confocal microscope.

In experiment [7] the test system is HeLa cell line. The experiment is described as follows: Production of extracellular vesicles, observed by optical microscope (bright field). The settings on record: solution of Example 1 (250 mM sucrose), peptide final concentration 20 μM, after 10 minutes. As for the experimental part: After the HeLa cell line was cultured in a 6-well plate, the culture was removed, and then the HeLa cell line was treated with the solution in Example 1.
The control group was not treated with any peptide, and the experiment group was treated with eMTDΔ4 peptide of SEQ ID NO: 2 (final concentration: 20 μM). After 10 minutes, the generation of extracellular vesicles was observed by an optical microscope (bright field), and the observation results are shown in FIG. 1.
Extracellular vesicle production was carried out by the experimental method of Experimental Example 2-1 using the R(8):MTD peptide of SEQ ID NO: 4 and the solutions of Example 1 and Comparative Examples 1 to 18, and the results are shown in FIGS. 2A to 2S.
Extracellular vesicle production was carried out by the experimental method of Example 2-1 using the R(8):MTD peptide of SEQ ID NO: 4 and the solutions of Examples 1 to 3 on Table 3, and the results are shown in FIGS. 3A to 3C.

In experiment [8] the test system is 293-HEK cell line. The experiment is described as follows: Loading of plasmid DNA in extracellular vesicles, agarose gel electrophoresis. The settings on record: peptide 25 μM, PUC19 3 μg/ml, EGFP-C1 6 μg/ml, solution of Example 1. Here is the method: After the 293-HEK cell line was cultured to 90% confluency in a 6-well plate, the culture was removed, and the cell line was treated with the eMTDΔ4 peptide (final concentration: 25 μM) and plasmid DNA (PUC19 3 μg/ml, EGFP-C1 6 μg/ml), which have been dissolved in the solution of Example 1.
1.15 ml of the supernatant was collected and 0.35 ml of Qiagen buffer P3 was added, thereby making a total volume of 1.5 ml, of which 0.75 ml was then passed through the DNA miniprep column (Qiagen), and the passed solution was purified with phenol and precipitated with ethanol.
After 30 μl of DNA bound to the column and 30 μl of DNA precipitated with ethanol were dissolved in water, 10 μl of DNA bound to the column and 10 μl of DNA precipitated with ethanol were subjected to agarose gel electrophoresis, and then stained with EtBr.

For experiment [9], the system named is 293-HEK cell line. Put plainly: Extracellular vesicle size and quantity by Nanoparticle Tracking Analysis (NTA). The settings on record: 50-fold diluted, solution of Example 1, peptide 20 μm, after 20 minutes. As for the experimental part:
After the 293-HEK cell line was cultured to 90% confluency (about 2×10^7 cells) in a 10-cm culture dish, the culture was removed, and the cells were treated with the eMTDΔ4 peptide (final concentration: 20 μm), which has been dissolved in 5 ml of the solution of Example 1. After 20 minutes, the solution was removed, followed by centrifugation at an RCF of 12000, and then the size and quantity of extracellular vesicles were measured using a Nanoparticle Tracking Analysis (NTA) system (Nanosight LM10, Malvern Instruments).

For the sequence “KLNFRQKLLNLISKLF (eMTDdelta4) [eMTDΔ4, Noxa protein-derived peptide, 16aa]”, the “Amount of proteins contained in extracellular vesicles” value in the experiment on 293-HEK cell line [1] (solution of Example 1, peptide 10 μM) was found to be 4.93 µg/µL; with 293-HEK cell line [1] (solution of Example 1, peptide 20 μM), 6.40 µg/µL; with 293-HEK cell line [1] (solution of Example 1, peptide 40 μM), 7.56 µg/µL. Further, in the experiment on HeLa cell line [2], the “time to release of extracellular vesicles to the extracellular matrix” value is “within a few seconds after generation”. Also, the “release of CD9 and CD81 proteins (extracellular vesicle indicators)” value in the experiment on HeLa cell line [2] (observed for 10 minutes) was “CD9 and CD81 proteins were released into the extracellular matrix”. The “loading of doxorubicin in extracellular vesicles” value with HeLa cell line [3] is given as “the generated extracellular vesicles contained doxorubicin as well as the HSP90 protein”. Besides, the “Protein detected or not (TRAIL in extracellular vesicles)” value in the experiment on 293-HEK cell line [4] is recorded as “◯”. Also, the cell morphology entry in the experiment with HeLa cell line [5] is “the cell morphology was damaged”. Moreover, the “extracellular vesicles containing HSP90 protein” value with HeLa cell line [5] is “extracellular vesicles containing the HSP90 protein were settled on the bottom of the plate”. For the same sequence, in the experiment on HeLa cell line [6], the “loading of propidium iodide (PI) in extracellular vesicles” value is on record as “the generated extracellular vesicles contained PI as well as the HSP90 protein”. The “generation of extracellular vesicles” value in the experiment on HeLa cell line [7] was “small extracellular vesicle particles were formed and settled on the bottom of the plate”. Also, in the experiment on 293-HEK cell line [8], the “loading of plasmid DNA in extracellular vesicles” value is on record as “can be loaded in the extracellular vesicles”. Further, the “Quantity of extracellular vesicles” value in the experiment with 293-HEK cell line [9] came out at 7.44e+08 ± 6.51e+07 mL⁻¹.
